Activity calls are given as the source filed them. The calls are words filed in the database; no cut-off is given here.
How the values were obtained:
[1] = species: Homo sapiens; assay: Selectivity index, ratio of IC50 for HDAC9 (unknown origin) to IC50 for HDAC 6 (unknown origin)
[2] = target: T1, Histone deacetylase 7 (Homo sapiens, UniProt Q8WUI4); assay: Inhibition of HDAC7 (unknown origin) by colorimetric method
T1 sequence (Q8WUI4 whole entry): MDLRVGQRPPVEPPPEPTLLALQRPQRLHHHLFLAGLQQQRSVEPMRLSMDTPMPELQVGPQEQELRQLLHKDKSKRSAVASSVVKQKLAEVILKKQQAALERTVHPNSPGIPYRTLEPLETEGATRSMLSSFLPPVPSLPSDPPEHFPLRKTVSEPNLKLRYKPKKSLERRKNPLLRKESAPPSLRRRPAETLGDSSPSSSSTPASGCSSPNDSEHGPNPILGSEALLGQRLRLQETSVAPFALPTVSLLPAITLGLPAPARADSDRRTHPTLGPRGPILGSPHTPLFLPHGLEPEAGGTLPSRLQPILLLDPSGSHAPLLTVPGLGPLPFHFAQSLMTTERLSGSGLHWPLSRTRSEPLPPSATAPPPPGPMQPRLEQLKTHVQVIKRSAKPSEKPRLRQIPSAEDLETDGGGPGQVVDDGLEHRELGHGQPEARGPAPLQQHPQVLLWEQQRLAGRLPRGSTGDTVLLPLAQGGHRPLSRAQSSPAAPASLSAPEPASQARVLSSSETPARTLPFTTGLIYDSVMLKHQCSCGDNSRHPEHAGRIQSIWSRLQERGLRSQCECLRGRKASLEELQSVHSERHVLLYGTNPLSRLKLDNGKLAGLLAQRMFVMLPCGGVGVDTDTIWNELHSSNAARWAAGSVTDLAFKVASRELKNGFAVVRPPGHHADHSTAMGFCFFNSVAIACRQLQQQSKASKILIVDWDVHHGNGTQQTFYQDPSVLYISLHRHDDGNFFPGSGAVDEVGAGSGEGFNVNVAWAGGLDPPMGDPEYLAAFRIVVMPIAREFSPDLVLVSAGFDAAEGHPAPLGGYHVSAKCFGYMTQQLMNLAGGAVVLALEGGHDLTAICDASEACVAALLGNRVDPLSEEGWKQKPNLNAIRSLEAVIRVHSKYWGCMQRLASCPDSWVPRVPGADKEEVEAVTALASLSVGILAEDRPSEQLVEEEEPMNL

[3] = target: T2, Protein deacetylase HDAC6 (Homo sapiens, UniProt Q9UBN7); assay: Inhibition of HDAC6 (unknown origin) by colorimetric method
T2 sequence (Q9UBN7 whole entry): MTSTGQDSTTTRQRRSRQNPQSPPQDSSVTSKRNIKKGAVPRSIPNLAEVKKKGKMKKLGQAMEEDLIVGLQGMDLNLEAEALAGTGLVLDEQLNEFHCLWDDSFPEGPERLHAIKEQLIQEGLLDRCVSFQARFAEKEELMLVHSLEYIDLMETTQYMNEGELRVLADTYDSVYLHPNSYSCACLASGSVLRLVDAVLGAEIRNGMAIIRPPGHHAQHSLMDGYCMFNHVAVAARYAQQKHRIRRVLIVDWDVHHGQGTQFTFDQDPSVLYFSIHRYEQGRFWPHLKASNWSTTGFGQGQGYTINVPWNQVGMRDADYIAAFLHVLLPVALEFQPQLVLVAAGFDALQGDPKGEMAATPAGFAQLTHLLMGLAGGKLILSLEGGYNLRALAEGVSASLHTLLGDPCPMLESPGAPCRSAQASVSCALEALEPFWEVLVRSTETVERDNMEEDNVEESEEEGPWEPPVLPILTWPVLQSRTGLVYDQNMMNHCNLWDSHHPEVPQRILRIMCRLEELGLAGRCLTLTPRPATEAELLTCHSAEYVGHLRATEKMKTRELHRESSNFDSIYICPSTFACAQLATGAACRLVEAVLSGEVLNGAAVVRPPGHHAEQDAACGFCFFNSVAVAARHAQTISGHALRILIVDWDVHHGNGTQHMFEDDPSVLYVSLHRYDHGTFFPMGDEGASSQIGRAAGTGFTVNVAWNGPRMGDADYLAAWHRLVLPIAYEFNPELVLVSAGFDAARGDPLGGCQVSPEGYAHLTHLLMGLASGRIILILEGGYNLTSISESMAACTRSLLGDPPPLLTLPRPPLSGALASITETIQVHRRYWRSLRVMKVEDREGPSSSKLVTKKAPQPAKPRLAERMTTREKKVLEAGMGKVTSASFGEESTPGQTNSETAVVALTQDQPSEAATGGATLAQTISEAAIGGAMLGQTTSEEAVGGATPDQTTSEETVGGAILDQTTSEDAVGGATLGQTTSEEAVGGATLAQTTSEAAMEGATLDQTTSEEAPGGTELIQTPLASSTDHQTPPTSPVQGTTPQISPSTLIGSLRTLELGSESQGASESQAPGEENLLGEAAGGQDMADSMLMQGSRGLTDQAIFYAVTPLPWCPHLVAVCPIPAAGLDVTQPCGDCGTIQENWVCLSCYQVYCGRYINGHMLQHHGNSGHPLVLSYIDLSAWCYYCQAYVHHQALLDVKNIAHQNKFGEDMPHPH

[4] = species: Homo sapiens; assay: Selectivity index, ratio of IC50 for HDAC5 (unknown origin) to IC50 for HDAC 1 (unknown origin)
[5] = species: Homo sapiens; assay: Selectivity index, ratio of IC50 for HDAC7 (unknown origin) to IC50 for HDAC 1 (unknown origin)
[6] = system: A549; assay: Cytotoxicity against human A549 cells assessed as cell viability after 48 hrs by MTT assay; assay type: functional, cell-based; conditions: A549, 48 h
[7] = system: A549; assay: Downregulation of HDAC1 expression in human A549 cells at 0.1 to 1 uM after 24 hrs by Western blot analysis; assay type: functional, cell-based; conditions: dose 0.1-1 µM
[8] = species: Homo sapiens; assay: Selectivity index, ratio of IC50 for HDAC7 (unknown origin) to IC50 for HDAC 6 (unknown origin)
[9] = species: Homo sapiens; assay: Selectivity index, ratio of IC50 for HDAC 7 (unknown origin) to IC50 for HDAC 3 (unknown origin)
[10] = system: A549; assay: Inhibition of colony formation in human A549 cells measured after 24 hrs; assay type: functional, cell-based; conditions: dose 0.1-1 µM, DDE = dose-dependent effect
[11] = system: A549; assay: Downregulation of HDAC3 expression in human A549 cells at 0.1 to 1 uM after 24 hrs by Western blot analysis; assay type: functional, cell-based; conditions: dose 0.1-1 µM
[12] = system: HOP-62; assay: Cytotoxicity against human HOP-62 cells assessed as cell viability after 48 hrs by MTT assay; assay type: functional, cell-based; conditions: HOP-62, 48 h
[13] = species: Homo sapiens; assay: Selectivity index, ratio of IC50 for HDAC 4 (unknown origin) to IC50 for HDAC 1 (unknown origin)
[14] = species: Homo sapiens; assay: Selectivity index, ratio of IC50 for HDAC3 (unknown origin) to IC50 for HDAC 6 (unknown origin)
[15] = target: Histone deacetylase 3 (Homo sapiens, UniProt O15379); assay: Inhibition of HDAC3 (unknown origin) by colorimetric method
Sequence of Histone deacetylase 3 (O15379 whole entry): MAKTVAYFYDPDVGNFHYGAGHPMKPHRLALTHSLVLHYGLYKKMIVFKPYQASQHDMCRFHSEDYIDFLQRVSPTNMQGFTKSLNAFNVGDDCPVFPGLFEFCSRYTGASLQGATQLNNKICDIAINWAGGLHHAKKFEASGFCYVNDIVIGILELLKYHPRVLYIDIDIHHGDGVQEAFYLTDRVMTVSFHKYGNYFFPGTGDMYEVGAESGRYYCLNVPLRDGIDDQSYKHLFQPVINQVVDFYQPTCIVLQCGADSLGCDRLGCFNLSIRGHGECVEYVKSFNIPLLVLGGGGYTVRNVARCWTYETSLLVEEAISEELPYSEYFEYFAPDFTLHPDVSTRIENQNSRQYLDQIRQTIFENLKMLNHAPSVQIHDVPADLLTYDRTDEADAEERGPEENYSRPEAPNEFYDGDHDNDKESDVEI

[16] = species: Homo sapiens; assay: Selectivity index, ratio of IC50 for HDAC5 (unknown origin) to IC50 for HDAC 6 (unknown origin)
[17] = species: Homo sapiens; assay: Selectivity index, ratio of IC50 for HDAC 3 (unknown origin) to IC50 for HDAC 1 (unknown origin)

`O=C(/C=C/c1ccc(CNc2ccc3nc4n(c(=O)c3c2)CCCCC4)cc1)NO` showed a Ratio IC50 [1] of 335, an IC50 [2] of 4080 nM and an IC50 [3] of 12.9 nM. It also gave a Ratio IC50 [4] of 12.4, a Ratio IC50 [5] of 81.8 and an IC50 [6] of 855 nM. The inhibition [7] was “Active”, the Ratio IC50 [8] was 316 and the Ratio IC50 [9] was 59.6. The inhibition [10] was “Dde”, the inhibition [11] was “Active” and the IC50 [12] was 900 nM. For the same compound, the Ratio IC50 [13] was 32.7, the Ratio IC50 [14] was 5.31 and the IC50 [15] was 68.5 nM. The Ratio IC50 [16] was 47.8 and the Ratio IC50 [17] was 1.37.
